From US20120129818A1, “Compositions and Methods for Treatment of Cardiovascular Disease” (priority 2009, published 2012)

How the values were obtained:
human MPO = target: T1, human MPO (Homo sapiens, UniProt P05164); assay: Myeloperoxidase (MPO) activity assay with tetramethyl benzidine (TMB) substrate; assay type: biochemical; details: for Ki: 50 mM sodium acetate buffer pH 5.6, read-out: Ki (inhibitory values of MPO)
T1 construct: purchased Sigma-Aldrich
Text: Various methods of measuring a reduction in MPO activity are known to those of ordinary skill in the art and can be used in accordance with the present invention. For example, in one embodiment, MPO activity can be measured by combining an amount of an MPO enzyme, or a sample containing an MPO enzyme, with H2O2, a tetramethyl benzidine (TMB) substrate, and an MPO inhibitor (e.g., a compound of the present invention), and then measuring the optical density of the resulting product.
Typically, the reaction mixture (200 μl) contained 20 mU human MPO (Sigma-Aldrich, St. Louis, Mo.), 400 nmol H2O2, 1.6 μmol of TMB, and varying concentrations of methylenedioxyphenyl ferulate (Formula (II)) or ferulylproline (Formula (XVI)).
The reaction was performed in a volume of 200 μl with 50 mM sodium acetate buffer at pH 5.6. The reaction was initiated by adding MPO and the optical density of the product formed was then read at 650 nm in a microplate reader at various time points.

[1] = system: human low-density lipoprotein (LDL); assay: Cu (II) induced LDL oxidation, conjugated diene formation at 234 nm; assay type: biochemical; details: 10 and 25 μM compound, 100 μg LDL protein, 5 μM Cu (II), pH 7.4, room temperature (FIG. 6)
Procedure: To determine the effect of the presently-disclosed compounds on low-density lipoprotein (LDL) oxidation, standard LDL oxidation reactions were carried out in the presence of methylenedioxyphenyl ferulate (FMDP; Formula (II)) and ferulylproline (Formula (XVI). Briefly, the in vitro oxidation reaction of LDL was carried out at room temperature in potassium phosphate buffer, pH 7.4. The reaction mixture contained 100 μg LDL protein and 5 μM Cu (II) with a final volume of 1 mL. The oxidation of LDL was followed by measuring the formation of a conjugated diene at 234 nm for a total of 300 min using a spectrophotometer. The time course of Cu (II) induced LDL oxidation was then performed. […] The increase in the oxidation of LDL in presence of 10 μM and 25 μM ferulylproline was attributed to the formation of Cu (II)-ferulylproline complex which would act as a pro-oxidant of LDL. Oxidation of LDL lipid by Cu (II) mediated oxidation both in the absence of any inhibitor and in the presence of 10 μM and 25 μM of methylenedioxyphenyl ferulate and ferulylproline was performed by monitoring the oxidation for 200 minutes.

[2] = system: xanthine/xanthine oxidase; assay: Superoxide mediated cytochrome c reduction catalyzed by xanthine/xanthine oxidase; assay type: biochemical; details: different concentrations of inhibitor, 549 nm (FIG. 7)
Procedure: The reaction mixture contained 250 μL of 5 mM hypoxanthine (1.25 mM final concentration), 100 μL of cytochrome c in buffer, 10 μL of xanthine oxidase enzyme and different concentrations of inhibitor. The final volume was made up to 1 mL with phosphate buffer. The oxidation was monitored by scanning wavelengths between 500 nm to 600 nm with five measurements. The cycle scanning time was 30 seconds.

[3] = Chlorotaurine formation (HOCl-mediated chlorination of taurine, TNB readout at 412 nm); details: various concentrations, 37° C. for 10 min, absorption 412 nm (FIG. 8)
Procedure: Chlorotaurine is formed by the oxidation of taurine by the chlorinating oxidant hypochlorous acid (HOCl), which is formed by MPO-mediated 2-electron oxidation of chloride by H2O2. To determine if the compounds of the present invention were capable of inhibiting the formation of chlorotaurine, a reaction mixture was produced that contained 50 uL of 150 mM taurine, various concentrations of methylenedioxyphenyl ferulate (Formula (II)) or ferulylproline (Formula (XVI)), and 250 μL of hypochlorous acid in sodium phosphate buffer. The mixture was incubated at 37° C. for 10 min followed by addition of 60 μL of 40 mM thionitrobenzoic acid (TNB). The whole solution was made up to 1.5 mL and absorption was measured at 412 nm using a UV-Visible spectrophotometer. […] Furthermore, although both of these compounds react differently toward chlorotaurine oxidation, they seem to show specificity toward MPO inhibition.

MPO = target: T2, MPO (Homo sapiens, UniProt P05164); assay: Analysis of whether the compounds act as MPO substrates (UV-Visible spectrum, TLC); assay type: biochemical
T2 sequence (P05164 49-745): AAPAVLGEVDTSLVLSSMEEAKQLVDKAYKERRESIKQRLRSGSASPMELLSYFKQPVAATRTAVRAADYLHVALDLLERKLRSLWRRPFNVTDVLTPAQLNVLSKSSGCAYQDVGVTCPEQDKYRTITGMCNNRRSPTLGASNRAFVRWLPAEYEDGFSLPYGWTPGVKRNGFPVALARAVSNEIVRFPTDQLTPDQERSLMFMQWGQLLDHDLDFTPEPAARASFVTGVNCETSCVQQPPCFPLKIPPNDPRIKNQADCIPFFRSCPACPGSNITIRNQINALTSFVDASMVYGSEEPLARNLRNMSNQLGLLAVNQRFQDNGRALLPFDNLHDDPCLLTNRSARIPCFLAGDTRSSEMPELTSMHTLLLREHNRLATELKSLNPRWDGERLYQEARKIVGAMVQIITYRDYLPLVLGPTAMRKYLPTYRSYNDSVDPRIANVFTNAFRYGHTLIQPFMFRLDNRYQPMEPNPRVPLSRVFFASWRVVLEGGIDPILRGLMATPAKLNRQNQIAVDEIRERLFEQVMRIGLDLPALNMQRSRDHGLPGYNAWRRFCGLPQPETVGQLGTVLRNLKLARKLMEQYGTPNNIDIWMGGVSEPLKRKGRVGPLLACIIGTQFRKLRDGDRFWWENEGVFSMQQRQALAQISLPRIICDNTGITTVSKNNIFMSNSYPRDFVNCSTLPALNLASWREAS
Procedure: It is known that MPO acts on a variety of substrates and, as such, it was thought that it may be theoretically possible that methylenedioxyphenyl ferulate (Formula (II)) and ferulylproline (Formula (XVI)) could be acting as MPO substrates and competitively masking the formation of products from the added substrates in the above-described experiments. […] In these experiments, a reaction mixture was produced that contained 720 μL of sodium acetate buffer, 100 μL of 100 mM H2O2, 100 μL of MPO enzyme with added compounds of the present invention, and a total volume made up to 1 mL. Upon analysis of this reaction mixture, however, there was no indication of any colored product even when the reaction mixture contained only the inhibitor and not the MPO substrate. To strengthen this finding, thin layer chromatography (TLC) was run with the MPO assay solution and inhibitor (50% ethylacetate:hexane) and spot identification was done in an iodine chamber.

SMILES	Ki (human MPO)	Inhibition of MPO activity (human MPO; varying concentrations, OD 650 nm (FIGS. 4 and 5))	Effect on Cu (II) induced LDL oxidation [1]	Inhibition of superoxide mediated cytochrome c reduction [2]	Inhibition of chlorotaurine formation [3]	Product formation during the MPO reaction by TLC / MPO substrate behaviour (MPO; MPO assay solution and inhibitor, 50% ethylacetate:hexane, iodine chamber)	Product formation in UV-Visible spectrum between 200 to 700 nm with and without MPO (MPO; sodium acetate buffer, H2O2, MPO enzyme, no MPO substrate (FIGS. 9 and 10))
COc1cc(/C=C/C(=O)N2CCCC2C(=O)O)ccc1O (centres unmarked) [ferulylproline]	4 µM	significantly inhibited MPO	acted as a pro-oxidant reducing the lag time	inhibited the reaction	did not cause any inhibition	do not act as an MPO substrate	failed to show any product
COc1cc(/C=C/C(=O)Oc2ccc3c(c2)OCO3)ccc1O [methylenedioxyphenyl ferulate]	8.5 µM	–	–	–	–	–	–
